Measurements: PubChem BioAssay AID602389 (Broad Institute, 2012)
Calls of active or inactive are those of the source.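 The calls were made as follows: active = growth down by 35% or more in duplicate, reached at no more than twice the top tested dose; inactive = growth raised instead, and the rest.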

Tested on: not listed separately
Experiment: P. aeruginosa growth delay under iron chelation, dose response, absorbance, plate reader, cherry-picks (AID 602389)
Conditions: P. aeruginosa growth with EDDHA, OD600, 24-30 h; at 50 µM (top of the series)
With COC(=O)c1ccc(OC(=O)c2ccco2)cc1 the growth change, negative = inhibition was -12.9% (inactive). In the case of CN(Cc1ccccc1)c1ncnc2ccc(Br)cc12, the growth change, negative = inhibition is reported as 9.04% (inactive). For O=C(NCC1CC1)c1cc([N+](=O)[O-])cc([N+](=O)[O-])c1, the growth change, negative = inhibition was 7.47% (inactive). For CSc1nnc(-c2ccc([N+](=O)[O-])cc2)o1, the growth change, negative = inhibition was -9.96% (inactive). For Cc1ccc(S(=O)(=O)NCCC(C)C)cc1[N+](=O)[O-], the growth change, negative = inhibition was 1.56% (inactive). In the case of Cn1cccc1C(C#N)c1ccccc1C#N (centres undefined), the growth change, negative = inhibition is reported as 9.31% (inactive). For COC(=O)c1ccc(OC(=O)c2cccs2)cc1, the growth change, negative = inhibition was 6.21% (inactive). With O=C(NC1CCCC1)c1cccc(Cl)c1 the growth change, negative = inhibition was 7.87% (inactive). For CC(C)CCNC(=O)c1cccc(Cl)c1, the growth change, negative = inhibition was -12.3% (inactive). With Cc1cc(S(=O)(=O)NCC2CC2)c(Cl)cc1Cl the growth change, negative = inhibition was 9.74% (inactive). For Cc1cccc(NC(=O)c2ccc3c(c2)OCCO3)n1, the growth change, negative = inhibition was 2.6% (inactive). With O=C(NC1CCCC1)c1cc(Cl)ccc1[N+](=O)[O-] the growth change, negative = inhibition was 7.04% (inactive). For N#CCn1c(C2CCCCC2)nc2ccccc2c1=O, the growth change, negative = inhibition was 17.3% (inactive). With CCOC1=CC(=O)OC(c2ccccc2)C1 (centres undefined) the growth change, negative = inhibition was 3.24% (inactive). For Clc1ccc2scc(CN3CCCC3)c2c1, the growth change, negative = inhibition was -1.16% (inactive). In the case of CCOc1ccc(-n2cccc2C=O)cc1, the growth change, negative = inhibition is reported as 1.21% (inactive). With N#CC(c1ccc(Cl)nn1)c1ccccc1Cl (centres undefined) the growth change, negative = inhibition was -4.43% (inactive). For COC(=O)c1ccc(NC(=S)N2CCCC2)cc1, the growth change, negative = inhibition was 12% (inactive). With N#CC(c1ccccc1)c1cccc(Cl)n1 (centres undefined) the growth change, negative = inhibition was -11.7% (inactive). With N#CC(Sc1ccccn1)c1ccc(Cl)cc1 (centres undefined) the growth change, negative = inhibition was 15.4% (inactive). For O=CC1=C(c2ccccc2)Oc2ccccc2O1, the growth change, negative = inhibition was -4.48% (inactive). For Cc1ccc(C(C#N)c2ccc(Cl)nn2)cc1 (centres undefined), the growth change, negative = inhibition was -0.103% (inactive). For N#CC(c1ccc(Cl)cc1)c1ncc(C(F)(F)F)cc1Cl (centres undefined), the growth change, negative = inhibition was -14% (inactive). With CCOC(=O)c1ccc(-c2ccc(C=O)o2)cc1 the growth change, negative = inhibition was 7.58% (inactive). With N#Cc1cc([N+](=O)[O-])ccc1N1CCCC1 the growth change, negative = inhibition was -11.4% (inactive). For O=C(Nc1ncc([N+](=O)[O-])s1)c1cccc([N+](=O)[O-])c1, the growth change, negative = inhibition was -9.89% (inactive). With CCCNS(=O)(=O)c1ccc(OC)c(Cl)c1Cl the growth change, negative = inhibition was -7.21% (inactive). With CCOc1ccc(CNC2CCCc3ccccc32)cc1 (centres undefined) the growth change, negative = inhibition was 20.8% (inactive). For Clc1cccc(CNCCCSc2ncccn2)c1, the growth change, negative = inhibition was -7.39% (inactive). In the case of O=C1C=C(c2cccc(Cl)c2)C[C@@H](c2ccc(F)cc2)C1, the growth change, negative = inhibition is reported as 17.4% (inactive). In the case of COc1ccc(/C=C/C(=O)c2ccoc2)cc1, the growth change, negative = inhibition is reported as 4.86% (inactive). In the case of CCOC(=O)c1ccc(-c2ccc(CO)o2)cc1, the growth change, negative = inhibition is reported as -6.54% (inactive). With N#CC(c1ccc(Cl)nn1)c1ccc(Cl)cc1Cl (centres undefined) the growth change, negative = inhibition was -0.745% (inactive). For Cc1cc(NC(=O)c2cc([N+](=O)[O-])ccc2Cl)no1, the growth change, negative = inhibition was 24.8% (inactive). For Nc1ccc(OCc2ccccc2)cc1[N+](=O)[O-], the growth change, negative = inhibition was 3.9% (inactive). For CCOC(=O)c1ccc(N2Cc3ccccc3C2=N)cc1, the growth change, negative = inhibition was -6.69% (inactive). With Cc1ccc(S(=O)c2ccc(C)cc2)cc1 the growth change, negative = inhibition was 0.078% (inactive). In the case of COc1ccc(C(C#N)c2ccc(Cl)nn2)cc1 (centres undefined), the growth change, negative = inhibition is reported as -3.93% (inactive). In the case of CCOC(=O)N1CCN(c2ccc(Cl)cc2)CC1, the growth change, negative = inhibition is reported as -0.021% (inactive). In the case of CCOC(=O)c1cnc(-c2ccccc2)nc1N, the growth change, negative = inhibition is reported as -4.77% (inactive). With CSC1=N/C(=C\C=C\c2cccs2)C(=O)S1 the growth change, negative = inhibition was 13.6% (inactive). For CCCCCC1CC(COc2ccccc2)OC1=O (centres undefined), the growth change, negative = inhibition was -10.5% (inactive).

Tested on: P. aeruginosa growth with EDDHA, OD600, 24-30 h
Experiment: as above
Conditions: not given
For Cc1cc(NC(=O)Nc2ccccc2[N+](=O)[O-])no1, the AC35 was > 50 µM (inactive). With O=C(NC1CCS(=O)(=O)C1)c1cccc(Br)c1 (centres undefined) the AC35 was > 50 µM (inactive). In the case of Cc1cc(C)nc(N(C#N)Cc2ccccc2)n1, the AC35 is reported as > 50 µM (inactive). With N#CC(c1ccc(Cl)cc1)c1cccc(Cl)n1 (centres undefined) the AC35 was 41.2 µM. With Cc1cccc(C(C#N)c2ccc(Cl)nn2)c1 (centres undefined) the AC35 was > 50 µM (inactive). With c1ccn2cc(-c3ccc4c(c3)OCCO4)nc2c1 the AC35 was > 50 µM (inactive). For COC(=O)c1cc(-c2ccc(Br)cc2)on1, the AC35 was 47 µM.
